Measured values as given in patent US20220389061A1, “IMMUNOMODULATORS” (priority 2019, published 2022).
Starred links: 1 amine or outer side, 2 acyl side, 3 side chain; linkers in the order of their positions; H or OH if unused. Positions of bridges follow the written chain, without caps; N, C: chain ends. Non-standard residues stand in square brackets, D forms with d. Residues, ends and D or L forms follow the SMILES beside them. Groups on a side chain read outwards from the residue. *: point of attachment. Trp(1-CH2CO2Me) = COC(=O)Cn1cc(C[C@H](N)C(=O)O)c2ccccc21; Trp(1-CH2COOH) = N[C@@H](Cc1cn(CC(=O)O)c2ccccc12)C(=O)O; X57 = O=C([C@H](CN/C(=N/c1ccccc1)c1ccccc1)N[*:1])[*:2]; Benzoyl(2-(4-MeOPh)) = COc1ccc(-c2ccccc2C(=O)*)cc1; X83 = FC(F)(F)c1cc(N*)cc(C(F)(F)F)c1; X31 = S=C(Nc1cccc2c(Cl)c[nH]c12)*; X49 = N#Cc1ccccc1NC(=N)c1ccccc1N*; X50 = COc1cc(NC(=S)*)ccc1-c1cnco1; Hyp = O=C(O)[C@@H]1C[C@@H](O)CN1; X47 = O=C(c1cn2c(n1)sc1ccccc12)*; X28 = Cc1ccc(Cl)c(NC(=S)*)c1Cl; NMeNle = CCCC[C@H](NC)C(=O)O; X16 = S=C(Nc1ccc2c(c1)OCO2)*; X4 = S=C(Nc1ccc2c(c1)OCCO2)*; X86 = CCOc1ccc(NC(=S)*)cc1; NMeA = CN[C@@H](C)C(=O)O; Dab = NCC[C@H](N)C(=O)O; Dap = NC[C@H](N)C(=O)O; X46 = COc1ccc(Cl)cc1N*; X51 = Cc1cccc(Cl)c1N*; CO = O=C([*:1])[*:2]

Biological target: T1, PD-1/PD-L1 (Homo sapiens, UniProt Q9NZQ7)
T1 construct: TVMV protease site linker (C); made in house; host or cells: HEK293T cells
Test: PD-1/PD-L1 Homogenous Time-Resolved Fluorescence (HTRF) binding assay
Details: PD-L1-His 10 nM pre-incubated with inhibitor, PD-1-Ig 20 nM; read-out: HTRF IC50
In short: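 Compounds preincubated 15 min with PD-L1-His (10 nM final), then PD-1-Ig (20 nM final) added for 15 min in dPBS with 0.1% BSA, 0.05% Tween-20. Detection by Eu-cryptate anti-Ig (1 nM) and APC anti-His (20 nM) HTRF.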

T1 sequence (Q9NZQ7 18-239): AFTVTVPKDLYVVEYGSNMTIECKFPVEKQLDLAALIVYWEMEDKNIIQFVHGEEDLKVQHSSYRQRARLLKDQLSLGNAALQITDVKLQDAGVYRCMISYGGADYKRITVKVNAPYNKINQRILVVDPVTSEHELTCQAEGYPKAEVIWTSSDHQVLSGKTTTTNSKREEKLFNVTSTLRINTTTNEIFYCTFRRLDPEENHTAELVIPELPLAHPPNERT

Structure (SMILES)	IC50 [nM]
CCCC[C@H]1C(=O)N(C)[C@@H](CCCC)C(=O)N[C@@H](CC(C)C)C(=O)N[C@H](C(=O)NCC(N)=O)CSCC(=O)N[C@@H](Cc2ccc(O)cc2)C(=O)N(C)[C@@H](C)C(=O)N[C@@H](CC(N)=O)C(=O)N2CCC[C@H]2C(=O)N[C@@H](CNC(=O)Nc2ccccc2C(=N)Nc2ccccc2C#N)C(=O)N[C@@H](CC(C)C)C(=O)N2C[C@H](O)C[C@H]2C(=O)N[C@@H](Cc2c[nH]c3ccccc23)C(=O)N[C@@H](CCN)C(=O)N[C@@H](Cc2cn(CC(=O)O)c3ccccc23)C(=O)N1C [Example 1097] ({CH2CO}-Y[NMeA]NP[Dap]([CO-X49])L[Hyp]W[Dab][Trp(1-CH2COOH)][NMeNle][NMeNle]LCG-NH2; thioether N-14)	5.7
CCCC[C@H]1C(=O)N(C)[C@@H](CCCC)C(=O)N[C@@H](CC(C)C)C(=O)N[C@H](C(=O)NCC(N)=O)CSCC(=O)N[C@@H](Cc2ccc(O)cc2)C(=O)N(C)[C@@H](C)C(=O)N[C@@H](CC(N)=O)C(=O)N2CCC[C@H]2C(=O)N[C@@H](CNC(=O)c2ccccc2-c2ccc(OC)cc2)C(=O)N[C@@H](CC(C)C)C(=O)N2C[C@H](O)C[C@H]2C(=O)N[C@@H](Cc2c[nH]c3ccccc23)C(=O)N[C@@H](CCN)C(=O)N[C@@H](Cc2cn(CC(=O)OC)c3ccccc23)C(=O)N1C [Example 1057] ({CH2CO}-Y[NMeA]NP[Dap](Benzoyl(2-(4-MeOPh)))L[Hyp]W[Dab][Trp(1-CH2CO2Me)][NMeNle][NMeNle]LCG-NH2; thioether N-14)	3.2
CCCC[C@H]1C(=O)N(C)[C@@H](CCCC)C(=O)N[C@@H](CC(C)C)C(=O)N[C@H](C(=O)NCC(N)=O)CSCC(=O)N[C@@H](Cc2ccc(O)cc2)C(=O)N(C)[C@@H](C)C(=O)N[C@@H](CC(N)=O)C(=O)N2CCC[C@H]2C(=O)N[C@@H](CNC(=S)Nc2ccc3c(c2)OCO3)C(=O)N[C@@H](CC(C)C)C(=O)N2C[C@H](O)C[C@H]2C(=O)N[C@@H](Cc2c[nH]c3ccccc23)C(=O)N[C@@H](CCN)C(=O)N[C@@H](Cc2cn(CC(=O)O)c3ccccc23)C(=O)N1C [Example 3065] ({CH2CO}-Y[NMeA]NP[Dap](X16)L[Hyp]W[Dab][Trp(1-CH2COOH)][NMeNle][NMeNle]LCG-NH2; thioether N-14)	0.98
CCCC[C@H]1C(=O)N(C)[C@@H](CCCC)C(=O)N[C@@H](CC(C)C)C(=O)N[C@H](C(=O)NCC(N)=O)CSCC(=O)N[C@@H](Cc2ccc(O)cc2)C(=O)N(C)[C@@H](C)C(=O)N[C@@H](CC(N)=O)C(=O)N2CCC[C@H]2C(=O)N[C@@H](CNC(=S)Nc2ccc(OCC)cc2)C(=O)N[C@@H](CC(C)C)C(=O)N2C[C@H](O)C[C@H]2C(=O)N[C@@H](Cc2c[nH]c3ccccc23)C(=O)N[C@@H](CCN)C(=O)N[C@@H](Cc2cn(CC(=O)O)c3ccccc23)C(=O)N1C [Example 1026] ({CH2CO}-Y[NMeA]NP[Dap](X86)L[Hyp]W[Dab][Trp(1-CH2COOH)][NMeNle][NMeNle]LCG-NH2; thioether N-14)	4.3
CCCC[C@H]1C(=O)N(C)[C@@H](CCCC)C(=O)N[C@@H](CC(C)C)C(=O)N[C@H](C(=O)NCC(N)=O)CSCC(=O)N[C@@H](Cc2ccc(O)cc2)C(=O)N(C)[C@@H](C)C(=O)N[C@@H](CC(N)=O)C(=O)N2CCC[C@H]2C(=O)N[C@@H](CNC(=S)Nc2c(Cl)ccc(C)c2Cl)C(=O)N[C@@H](CC(C)C)C(=O)N2C[C@H](O)C[C@H]2C(=O)N[C@@H](Cc2c[nH]c3ccccc23)C(=O)N[C@@H](CCNC(=S)Nc2c(Cl)ccc(C)c2Cl)C(=O)N[C@@H](Cc2cn(CC(=O)O)c3ccccc23)C(=O)N1C [Example 1113] ({CH2CO}-Y[NMeA]NP[Dap](X28)L[Hyp]W[Dab](X28)[Trp(1-CH2COOH)][NMeNle][NMeNle]LCG-NH2; thioether N-14)	9.3
CCCC[C@H]1C(=O)N(C)[C@@H](CCCC)C(=O)N[C@@H](CC(C)C)C(=O)N[C@H](C(=O)NCC(N)=O)CSCC(=O)N[C@@H](Cc2ccc(O)cc2)C(=O)N(C)[C@@H](C)C(=O)N[C@@H](CC(N)=O)C(=O)N2CCC[C@H]2C(=O)N[C@@H](CNC(=O)Nc2cc(Cl)ccc2OC)C(=O)N[C@@H](CC(C)C)C(=O)N2C[C@H](O)C[C@H]2C(=O)N[C@@H](Cc2c[nH]c3ccccc23)C(=O)N[C@@H](CCNC(=O)Nc2cc(Cl)ccc2OC)C(=O)N[C@@H](Cc2cn(CC(=O)O)c3ccccc23)C(=O)N1C [Example 1123] ({CH2CO}-Y[NMeA]NP[Dap]([CO-X46])L[Hyp]W[Dab]([CO-X46])[Trp(1-CH2COOH)][NMeNle][NMeNle]LCG-NH2; thioether N-14)	4.4
CCCC[C@H]1C(=O)N(C)[C@@H](CCCC)C(=O)N[C@@H](CC(C)C)C(=O)N[C@H](C(=O)NCC(N)=O)CSCC(=O)N[C@@H](Cc2ccc(O)cc2)C(=O)N(C)[C@@H](C)C(=O)N[C@@H](CC(N)=O)C(=O)N2CCC[C@H]2C(=O)N[C@@H](CNC(=O)Nc2cc(C(F)(F)F)cc(C(F)(F)F)c2)C(=O)N[C@@H](CC(C)C)C(=O)N2C[C@H](O)C[C@H]2C(=O)N[C@@H](Cc2c[nH]c3ccccc23)C(=O)N[C@@H](CCNC(=O)Nc2cc(C(F)(F)F)cc(C(F)(F)F)c2)C(=O)N[C@@H](Cc2cn(CC(=O)O)c3ccccc23)C(=O)N1C [Example 1015] ({CH2CO}-Y[NMeA]NP[Dap]([CO-X83])L[Hyp]W[Dab]([CO-X83])[Trp(1-CH2COOH)][NMeNle][NMeNle]LCG-NH2; thioether N-14)	274
CCCC[C@H]1C(=O)N(C)[C@@H](CCCC)C(=O)N[C@@H](CC(C)C)C(=O)N[C@H](C(=O)NCC(N)=O)CSCC(=O)N[C@@H](Cc2ccc(O)cc2)C(=O)N(C)[C@@H](C)C(=O)N[C@@H](CC(N)=O)C(=O)N2CCC[C@H]2C(=O)N[C@@H](CN/C(=N/c2ccccc2)c2ccccc2)C(=O)N[C@@H](CC(C)C)C(=O)N2C[C@H](O)C[C@H]2C(=O)N[C@@H](Cc2c[nH]c3ccccc23)C(=O)N[C@@H](CCN)C(=O)N[C@@H](Cc2cn(CC(=O)O)c3ccccc23)C(=O)N1C [Example 1018] ({CH2CO}-Y[NMeA]NP[X57]L[Hyp]W[Dab][Trp(1-CH2COOH)][NMeNle][NMeNle]LCG-NH2; thioether N-14)	9.98
CCCC[C@H]1C(=O)N(C)[C@@H](CCCC)C(=O)N[C@@H](CC(C)C)C(=O)N[C@H](C(=O)NCC(N)=O)CSCC(=O)N[C@@H](Cc2ccc(O)cc2)C(=O)N(C)[C@@H](C)C(=O)N[C@@H](CC(N)=O)C(=O)N2CCC[C@H]2C(=O)N[C@@H](CNC(=S)Nc2ccc(-c3cnco3)c(OC)c2)C(=O)N[C@@H](CC(C)C)C(=O)N2C[C@H](O)C[C@H]2C(=O)N[C@@H](Cc2c[nH]c3ccccc23)C(=O)N[C@@H](CCNC(=S)Nc2ccc(-c3cnco3)c(OC)c2)C(=O)N[C@@H](Cc2cn(CC(=O)O)c3ccccc23)C(=O)N1C [Example 1029] ({CH2CO}-Y[NMeA]NP[Dap](X50)L[Hyp]W[Dab](X50)[Trp(1-CH2COOH)][NMeNle][NMeNle]LCG-NH2; thioether N-14)	3.1
CCCC[C@H]1C(=O)N(C)[C@@H](CCCC)C(=O)N[C@@H](CC(C)C)C(=O)N[C@H](C(=O)NCC(N)=O)CSCC(=O)N[C@@H](Cc2ccc(O)cc2)C(=O)N(C)[C@@H](C)C(=O)N[C@@H](CC(N)=O)C(=O)N2CCC[C@H]2C(=O)N[C@@H](CNC(=O)c2cn3c(n2)sc2ccccc23)C(=O)N[C@@H](CC(C)C)C(=O)N2C[C@H](O)C[C@H]2C(=O)N[C@@H](Cc2c[nH]c3ccccc23)C(=O)N[C@@H](CCNC(=O)c2cn3c(n2)sc2ccccc23)C(=O)N[C@@H](Cc2cn(CC(=O)OC)c3ccccc23)C(=O)N1C [Example 2001] ({CH2CO}-Y[NMeA]NP[Dap](X47)L[Hyp]W[Dab](X47)[Trp(1-CH2CO2Me)][NMeNle][NMeNle]LCG-NH2; thioether N-14)	184
CCCC[C@H]1C(=O)N(C)[C@@H](CCCC)C(=O)N[C@@H](CC(C)C)C(=O)N[C@H](C(=O)NCC(N)=O)CSCC(=O)N[C@@H](Cc2ccc(O)cc2)C(=O)N(C)[C@@H](C)C(=O)N[C@@H](CC(N)=O)C(=O)N2CCC[C@H]2C(=O)N[C@@H](CNC(=S)Nc2ccc3c(c2)OCCO3)C(=O)N[C@@H](CC(C)C)C(=O)N2C[C@H](O)C[C@H]2C(=O)N[C@@H](Cc2c[nH]c3ccccc23)C(=O)N[C@@H](CCNC(=S)Nc2ccc3c(c2)OCCO3)C(=O)N[C@@H](Cc2cn(CC(=O)O)c3ccccc23)C(=O)N1C [Example 3007] ({CH2CO}-Y[NMeA]NP[Dap](X4)L[Hyp]W[Dab](X4)[Trp(1-CH2COOH)][NMeNle][NMeNle]LCG-NH2; thioether N-14)	2.6
CCCC[C@H]1C(=O)N(C)[C@@H](CCCC)C(=O)N[C@@H](CC(C)C)C(=O)N[C@H](C(=O)NCC(N)=O)CSCC(=O)N[C@@H](Cc2ccc(O)cc2)C(=O)N(C)[C@@H](C)C(=O)N[C@@H](CC(N)=O)C(=O)N2CCC[C@H]2C(=O)N[C@@H](CNC(=O)Nc2c(C)cccc2Cl)C(=O)N[C@@H](CC(C)C)C(=O)N2C[C@H](O)C[C@H]2C(=O)N[C@@H](Cc2c[nH]c3ccccc23)C(=O)N[C@@H](CCNC(=O)Nc2c(C)cccc2Cl)C(=O)N[C@@H](Cc2cn(CC(=O)O)c3ccccc23)C(=O)N1C [Example 1107] ({CH2CO}-Y[NMeA]NP[Dap]([CO-X51])L[Hyp]W[Dab]([CO-X51])[Trp(1-CH2COOH)][NMeNle][NMeNle]LCG-NH2; thioether N-14)	0.5
CCCC[C@H]1C(=O)N(C)[C@@H](CCCC)C(=O)N[C@@H](CC(C)C)C(=O)N[C@H](C(=O)NCC(N)=O)CSCC(=O)N[C@@H](Cc2ccc(O)cc2)C(=O)N(C)[C@@H](C)C(=O)N[C@@H](CC(N)=O)C(=O)N2CCC[C@H]2C(=O)N[C@@H](CN)C(=O)N[C@@H](CC(C)C)C(=O)N2C[C@H](O)C[C@H]2C(=O)N[C@@H](Cc2c[nH]c3ccccc23)C(=O)N[C@@H](CCNC(=S)Nc2cccc3c(Cl)c[nH]c23)C(=O)N[C@@H](Cc2cn(CC(=O)O)c3ccccc23)C(=O)N1C [Example 3031] ({CH2CO}-Y[NMeA]NP[Dap]L[Hyp]W[Dab](X31)[Trp(1-CH2COOH)][NMeNle][NMeNle]LCG-NH2; thioether N-14)	3.1
